Assays:
Orf2 [1] = assay: Detection of prenyltransferase activity of ORF2, TLC with UV 254 nm, incl. Mg2+ dependence; assay type: biochemical, Streptomyces sp. strain CL190; details: for reaction products of prenyl acceptor with ORF2: additional studies of Example 5; for prenylated products with ORF2: 5 mM DHN2, 5 mM GPP; for prenyltransferase activity of ORF2: 5 mM prenyl acceptor, 5 mM MgCl2, 4 hrs room temperature
Orf2 [2] = assay: Promiscuous activity of ORF2 with flavonoids and other compounds, [14C]GPP TLC; assay type: biochemical, Streptomyces sp. strain CL190; details: for Orf2 prenyltransferase activity in the presence of flavonoids, isoflavonoids and related compounds: GPP as prenyl donor, FIG. 2B; for function as substrates for Orf2 (converted into prenylated derivatives): purified recombinant Orf2 incubated with prenyl donor and prenyl acceptor, FIGS. 2A and 2B
Method: FIG. 2B illustrates the promiscuous activity of Orf2. Several assays were conducted, employing a variety of potential substrates, i.e., 1,3-DHN (1), 1,6-DHN (2), 2,7-DHN (3), 4-HPP (4) and several isoflavonoids and polyketide derivatives, including daidzein (7,4′-dihydroxyisoflavonone, 5), formononetin (7-hydroxy, 4′-methoxyisoflavonone, 6), fisetin (3,3′,4′,7-tetrahydroxyflavone, 7), genistein (5,7,4′-trihydroxyisoflavone, 8), naringenin (5,7,4′-trihydroxyflavonone, 9), flaviolin (10), olivetol (11), olivetolic acid (12), and resveratrol (3,4′,5-trihydroxystilbene, 13). The chemical structures of four reaction products (i.e., 1,6-dihydroxy 2-geranyl naphthalene (14), 1,6-dihydroxy 5-geranyl naphthalene (15), 6-geranyl naringenin (16) and 7-O-geranyl naringenin (17)) were determined by both MS and ^1H NMR analyses. The reaction buffer consisted of 50 mM HEPES (pH 7.5), 5 mM MgCl2, and 0.1 mM GPP, 0.009 mM [^14C]GPP, and 0.1 mM of each substrate, in a final volume of 20 μl. The reaction was initiated by adding 30 μg of Orf2 to the assay mixture. After incubation at 25° C. for 6 hours, the mixture was dried, and spotted on a silica gel TLC plate. The TLC plate was developed with a chloroform/methanol (15:1) solvent mixture. Reaction products were detected with a [^14C] imaging plate (Fuji Photo Film).
The reaction buffer employed contained 50 mM HEPES (pH 7.5), 5 mM DTT (as needed), 5 mM MgCl2, 0.1 mM of each prenyl acceptor, 0.1 mM GPP, and 0.01 mM [^14C]GPP in a final volume of 20 μl. The reaction was initiated by adding 20 μg of ORF2 protein to the assay mixture. After incubation at room temperature for 4 hrs., the reaction mixture was dried using SpeedVac and the dried residue was spotted on a silica gel TLC plate. The plate was developed with chloroform:methanol (15-30:1). Reaction products were detected with a phosphoimager. The compounds tested were daidzein, fisetin, formononetin, genistein, naringenin, 4-HPP and DHN2.

HypSc = assay: Detection of prenyltransferase activity of HypSc (TLC); assay type: biochemical, Streptomyces coelicolor A3(2); details: for reaction products of prenyl acceptor with hypSc: assay of Example 5 repeated with hypSc
Method: FIG. 7 relates to the functional evaluation of HypSc. Thus, HypSc prenyltransferase activity was assayed as described above with respect to FIG. 2A, using 1,6-DHN as a prenyl acceptor (in each of lanes 1-4), with no prenyl acceptor in lane 1, DMAPP in lanes 2 and 3, and GPP in lane 4. No Mg^2+ was used in lane 2. The samples were incubated overnight at room temperature.
In order to validate this model, HypSc was subcloned from genomic DNA, and over-expressed in E. coli as an octa-histidine tagged protein and purified for Ni^2+-chelation chromatography. The purified enzyme was then assayed for prenyltransferase activity using DMAPP and GPP as prenyl donors.
The assay described in Example 5 was repeated with hypSc and (a) 1,6-DHN (2), (b) 2,7-DHN (3), (c) daidzein ([…], 5), (d) genistein (5,7,4′-trihydroxyisoflavone, 8), (e) naringenin (5,7,4′-trihydroxyflavonone, 9), (f) olivetol (12), and (g) resveratrol (3,4′,5-trihydroxystilbene, 13).

antibacterial = details: Schutz, Phytochemistry 40:1273-1277 (1995); cited from earlier work

| Compound | reaction products of prenyl acceptor with ORF2 (Orf2 [1]) | Orf2 prenyltransferase activity in the presence of flavonoids, isoflavonoids and related compounds (Orf2 [2]) | reaction products of prenyl acceptor with hypSc (HypSc) | function as substrates for Orf2 (converted into prenylated derivatives) (Orf2 [2]) | other results |
| --- | --- | --- | --- | --- | --- |
| CCCCCc1cc(O)cc(O)c1 [olivetol] | 2-geranyl-olivetol and 4-geranyl-olivetol | active | 2-dimethylallyl-olivetol and 4-dimethylallyl-olivetol |  |  |
| Oc1ccc2c(O)cccc2c1 [1,6-DHN, 1,6-dihydroxynaphthalene] | 5-geranyl-1,6-DHN and 2-geranyl-1,6-DHN |  | 5-dimethylallyl-1,6-DHN | function as substrates | prenylated products with ORF2 (Orf2 [1]; absence of magnesium): no prenylated products were observed; prenylated products with ORF2 (Orf2 [1]; presence of magnesium (5 mM MgCl2)): prenylated products were readily observed; prenyltransferase activity of ORF2 (Orf2 [1]; either prenyl donor FPP or GPP): prenyltransferase activity was observed; prenylated products detected by thin layer chromatography (Orf2 [1]; Orf2 incubated with 1,6-DHN and GPP): readily detected; prenyltransferase activity of HypSc (HypSc; DMAPP as prenyl donor, absence of Mg2+): Notable prenyltransferase activity was detected |
| CC(C)=CCC/C(C)=C/COP(=O)(O)OP(=O)(O)O [GPP, geranyl diphosphate] |  |  |  |  | relative activity of Orf2 with prenyl donor (Orf2 [1]; purified recombinant Orf2, prenyl donor DMAPP (C5), GPP (C10) or FPP (C15) with aromatic acceptors): highest relative activity |
| CCCCCc1cc(O)cc(O)c1C(=O)O [olivetolic acid] |  | active |  |  |  |
| CC(C)=CCC/C(C)=C/Cc1c(O)cc2c(c1O)C(=O)C[C@@H](c1ccc(O)cc1)O2 [6-geranyl naringenin] |  |  |  |  | antibacterial activity (antibacterial): significant antibacterial activity |
| O=c1c(O)c(-c2ccc(O)c(O)c2)oc2cc(O)ccc12 [fisetin, 3,3′,4′,7-tetrahydroxyflavone] |  | little or no activity |  |  |  |
| Oc1ccc2ccc(O)cc2c1 [2,7-DHN] | 1-geranyl-2,7-DHN and 1,6-digeranyl-2,7-DHN |  | 1-dimethylallyl-2,7-DHN | function as substrates | prenyltransferase activity of ORF2 (Orf2 [1]; prenyl donor GPP): prenyltransferase activity was observed |
| N[C@@H](Cc1ccc(O)cc1)C(=O)O [tyrosine] |  |  |  | did not serve as substrates |  |
| Oc1ccc(C=Cc2cc(O)cc(O)c2)cc1 [resveratrol, 3,4′,5-trihydroxystilbene] | 4-geranyl-resveratrol | showed prenyltransferase activity | 4-dimethylallyl-resveratrol |  |  |
| O=C(O)C(=O)Cc1ccc(O)cc1 [4-HPP, 4-hydroxyphenylpyruvate] |  |  |  | converted by Orf2 into a prenylated derivative |  |
| N[C@@H](Cc1ccccc1)C(=O)O [phenylalanine] |  |  |  | did not serve as substrates |  |
| O=c1c(-c2ccc(O)cc2)coc2cc(O)cc(O)c12 [genistein, 5,7,4′-trihydroxyisoflavone] | 7-O-geranyl-genistein | showed prenyltransferase activity | no reaction products detected |  |  |
| O=C1C(O)=CC(=O)c2c(O)cc(O)cc21 [flaviolin, 2,5,7-trihydroxy-1,4-naphthoquinone] |  |  |  | function as substrates |  |
| Oc1cc(O)c2ccccc2c1 [1,3-DHN, 1,3-dihydroxynaphthalene] |  |  |  | function as substrates | prenyltransferase activity of ORF2 (Orf2 [1]; either prenyl donor FPP or GPP): prenyltransferase activity was observed |

Source: patent publication US8124390B2, “Aromatic prenyltransferases, nucleic acids encoding same and uses therefor” (The Salk Institute for Biological Studies, priority 2005, dated 2012)
